Measured values published in PubChem BioAssay AID328 (DTP/NCI, 2004).
“And” between values parts separate entries of the source, which are not always exact repeats. Equal values may be shown once. Inconclusive results and toxic doses are left out.

Test system: BDF1 mice, P388 leukemia ip, median survival T/C
Test: NCI In Vivo Anticancer Drug Screen. Data for tumor model P388 Leukemia (intraperitoneal) in B6D2F1 (BDF1) mice
Details: endpoint: median survival time, higher = longer survival
How it was run: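 Read-out is survival of treated animals expressed relative to the vehicle group, as a T/C ratio.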

[1] = dose: 100.0 mg/kg/injection, schedule: Q01DX009 (ip), vehicle: saline with Tween-80
[2] = dose: 200.0 mg/kg/injection, schedule: Q01DX009 (ip), vehicle: saline with Tween-80
[3] = dose: 400.0 mg/kg/injection, schedule: Q01DX009 (ip), vehicle: saline with Tween-80
[4] = dose: 100.0 mg/kg/injection, schedule: Q01DX009 (ip), vehicle: saline
[5] = dose: 100.0 mg/kg/injection, schedule: Q04DX003 (ip), vehicle: saline
[6] = dose: 200.0 mg/kg/injection, schedule: Q01DX009 (ip), vehicle: saline
[7] = dose: 200.0 mg/kg/injection, schedule: Q04DX003 (ip), vehicle: saline
[8] = dose: 400.0 mg/kg/injection, schedule: Q01DX009 (ip), vehicle: saline
[9] = dose: 400.0 mg/kg/injection, schedule: Q04DX003 (ip), vehicle: saline
[10] = dose: 50.0 mg/kg/injection, schedule: Q01DX009 (ip), vehicle: saline with Tween-80
[11] = dose: 50.0 mg/kg/injection, schedule: Q01DX001 (ip), vehicle: saline

CC(=O)OC1CC2(O)C(CCC3(C)C(c4ccc(=O)oc4)CCC32O)C2(C)C1=CC(O)C1OC12 (stereo unspecified)
T/C (dose: 0.05 mg/kg/injection, schedule: Q01DX010 (ip), vehicle: carboxymethylcellulose (CMC)): 105 % of control
T/C (dose: 0.1 mg/kg/injection, schedule: Q01DX010 (ip), vehicle: carboxymethylcellulose (CMC)): 95 % of control
T/C (dose: 0.2 mg/kg/injection, schedule: Q01DX010 (ip), vehicle: carboxymethylcellulose (CMC)): 105 % of control
T/C (dose: 0.5 mg/kg/injection, schedule: Q01DX010 (ip), vehicle: carboxymethylcellulose (CMC)): 90 % of control

O=C(Nc1ccc(Br)cc1)c1cc(Br)ccc1O
T/C (dose: 50.0 mg/kg/injection, schedule: Q01DX010 (ip), vehicle: steriod suspending solution): 104 % of control
T/C (dose: 100.0 mg/kg/injection, schedule: Q01DX010 (ip), vehicle: steriod suspending solution): 100 % of control
T/C (dose: 200.0 mg/kg/injection, schedule: Q01DX010 (ip), vehicle: steriod suspending solution): 100 % of control
T/C (dose: 400.0 mg/kg/injection, schedule: Q01DX010 (ip), vehicle: steriod suspending solution): 109 % of control

O=C(Nc1cc(Cl)ccc1Cl)c1ccc(C(=O)Nc2cc(Cl)ccc2Cl)cc1
T/C [1]: 94 % of control
T/C [2]: 91 % of control
T/C [3]: 110 % of control

COc1ccccc1NC(N)=O
T/C (dose: 100.0 mg/kg/injection, schedule: Q04DX003 (ip), vehicle: saline with Tween-80): 105 % of control
T/C (dose: 200.0 mg/kg/injection, schedule: Q04DX003 (ip), vehicle: saline with Tween-80): 105 % of control
T/C (dose: 400.0 mg/kg/injection, schedule: Q04DX003 (ip), vehicle: saline with Tween-80): 100 % of control

Cc1ccc(-n2nnc3ccccc3c2=O)cc1C
T/C [4]: 109 % of control
T/C [5]: 100 % of control
T/C [6]: 90 % of control
T/C [7]: 104 % of control
T/C [8]: 113 % of control
T/C [9]: 100 % of control

O=N[O-].O=N[O-].O=N[O-].[Co+3].[NH-]CC[N-]CC[NH-]
T/C [10]: 111 % of control

N#CC1(NC(Cc2ccccc2)c2ccccc2)CCCCCCCCCCC1 (stereo unspecified)
T/C [10]: 92 % of control
T/C [1]: 86 % of control
T/C [2]: 104 % of control
T/C [3]: 102 % of control

CCCCCCCCCCCCN1CCCC(C)C1 (stereo unspecified)
T/C (dose: 12.5 mg/kg/injection, schedule: Q01DX009 (ip), vehicle: saline with Tween-80): 114 % of control
T/C (dose: 25.0 mg/kg/injection, schedule: Q01DX009 (ip), vehicle: saline with Tween-80): 109 % of control
T/C [10]: 98 % of control and 120 % of control

CCCCCC[C@@H](O)C/C=C\CCCCCCCC(=O)OCCO
T/C (dose: 50.0 mg/kg/injection, schedule: Q01DX005 (ip), vehicle: saline): 99 % of control
T/C (dose: 100.0 mg/kg/injection, schedule: Q01DX005 (ip), vehicle: saline): 107 % of control
T/C (dose: 200.0 mg/kg/injection, schedule: Q01DX005 (ip), vehicle: saline): 93 % of control
T/C (dose: 400.0 mg/kg/injection, schedule: Q01DX005 (ip), vehicle: saline): 105 % of control
T/C (dose: 800.0 mg/kg/injection, schedule: Q01DX005 (ip), vehicle: saline): 115 % of control
T/C (dose: 1600.0 mg/kg/injection, schedule: Q01DX005 (ip), vehicle: saline): 107 % of control

C=C(C)C(=O)Oc1ccc([N+](=O)[O-])cc1
T/C [10]: 96 % of control
T/C [1]: 113 % of control
T/C [2]: 98 % of control

CCOC(=O)C(C)(C)CN(CC(C)(C)C(=O)OCC)C(C)(C)C
T/C [11]: 110 % of control
T/C (dose: 100.0 mg/kg/injection, schedule: Q01DX001 (ip), vehicle: saline): 120 % of control

COC1C(CNC23CC4CC(CC(C4)C2)C3)OC2OC(C)(C)OC21 (stereo unspecified)
T/C (dose: 25.0 mg/kg/injection, schedule: Q01DX005 (ip), vehicle: saline with Tween-80): 101 % of control
T/C (dose: 50.0 mg/kg/injection, schedule: Q01DX005 (ip), vehicle: saline with Tween-80): 100 % of control and 113 % of control
T/C (dose: 100.0 mg/kg/injection, schedule: Q01DX005 (ip), vehicle: saline with Tween-80): 99 % of control and 121 % of control
T/C (dose: 200.0 mg/kg/injection, schedule: Q01DX005 (ip), vehicle: saline with Tween-80): 105 % of control and 115 % of control

COc1cc([C@@H]2c3cc4c(cc3[C@@H](OC3OC5CO[C@@H](c6cccs6)OC5C(O)C3O)[C@H]3COC(=O)[C@H]23)OCO4)cc(OC)c1O (stereo partly specified)
T/C (dose: 0.25 mg/kg/injection, schedule: Q01DX010 (ip), vehicle: saline): 166 % of control and 175 % of control
T/C (dose: 0.5 mg/kg/injection, schedule: Q01DX010 (ip), vehicle: saline): 179 % of control and 183 % of control
T/C (dose: 1.0 mg/kg/injection, schedule: Q01DX010 (ip), vehicle: saline): 166 % of control and 216 % of control
T/C (dose: 2.0 mg/kg/injection, schedule: Q01DX010 (ip), vehicle: saline): 233 % of control and 250 % of control
T/C (dose: 2.88 mg/kg/injection, schedule: Q04DX003 (ip), vehicle: saline): 300 % of control
T/C (dose: 3.24 mg/kg/injection, schedule: Q04DX003 (ip), vehicle: clinical formulation): 327 % of control
T/C (dose: 4.0 mg/kg/injection, schedule: Q01DX010 (ip), vehicle: saline): 100 % of control
T/C (dose: 4.8 mg/kg/injection, schedule: Q04DX003 (ip), vehicle: saline): 596 % of control
T/C (dose: 5.4 mg/kg/injection, schedule: Q04DX003 (ip), vehicle: clinical formulation): 557 % of control
T/C (dose: 8.0 mg/kg/injection, schedule: Q04DX003 (ip), vehicle: saline): 378 % of control
T/C (dose: 9.0 mg/kg/injection, schedule: Q04DX003 (ip), vehicle: clinical formulation): 557 % of control
T/C (dose: 13.33 mg/kg/injection, schedule: Q04DX003 (ip), vehicle: saline): 240 % of control
T/C (dose: 15.0 mg/kg/injection, schedule: Q04DX003 (ip), vehicle: clinical formulation): 558 % of control

COC(=O)C(N)CSC (stereo unspecified)
T/C [4]: 103 % of control
T/C [5]: 113 % of control
T/C [6]: 106 % of control
T/C [7]: 90 % of control
T/C [8]: 106 % of control
T/C [9]: 104 % of control

Nc1nc(=O)n(C2OC(CO)C(O)C2O)c2scnc12 (stereo unspecified)
T/C (dose: 25.0 mg/kg/injection, schedule: Q04DX003 (ip), vehicle: saline): 108 % of control
T/C (dose: 50.0 mg/kg/injection, schedule: Q04DX003 (ip), vehicle: saline): 118 % of control
T/C [5]: 118 % of control
T/C [7]: 108 % of control

Cn1cc(C=O)c2nccnc21
T/C (dose: 0.78 mg/kg/injection, schedule: Q01DX009 (ip), vehicle: saline): 92 % of control
T/C (dose: 1.56 mg/kg/injection, schedule: Q01DX009 (ip), vehicle: saline): 112 % of control
T/C (dose: 6.25 mg/kg/injection, schedule: Q01DX009 (ip), vehicle: saline): 91 % of control
T/C (dose: 12.5 mg/kg/injection, schedule: Q01DX009 (ip), vehicle: saline): 86 % of control
T/C [1]: 117 % of control
T/C [4]: 108 % of control

COC(=O)C(N)CSCSCc1ccccc1 (stereo unspecified)
T/C (dose: 6.25 mg/kg/injection, schedule: Q04DX003 (ip), vehicle: water): 109 % of control
T/C (dose: 12.5 mg/kg/injection, schedule: Q04DX003 (ip), vehicle: water): 113 % of control
T/C (dose: 25.0 mg/kg/injection, schedule: Q04DX003 (ip), vehicle: water): 104 % of control
T/C (dose: 50.0 mg/kg/injection, schedule: Q04DX003 (ip), vehicle: water): 100 % of control
T/C (dose: 100.0 mg/kg/injection, schedule: Q04DX003 (ip), vehicle: water): 100 % of control

CN1C(=O)C(C)(C)C(=O)C1(C)C
T/C (dose: 12.5 mg/kg/injection, schedule: Q01DX001 (ip), vehicle: saline): 100 % of control
T/C (dose: 25.0 mg/kg/injection, schedule: Q01DX001 (ip), vehicle: saline): 100 % of control
T/C [11]: 100 % of control

Cn1c(-c2ccccc2)c(C(=O)O)c(C(=O)O)c1-c1ccccc1
T/C (dose: 50.0 mg/kg/injection, schedule: Q01DX009 (ip), vehicle: Klucel (hydroxypropylcellulose) (HPC)): 95 % of control
T/C (dose: 100.0 mg/kg/injection, schedule: Q01DX009 (ip), vehicle: Klucel (hydroxypropylcellulose) (HPC)): 90 % of control
T/C (dose: 200.0 mg/kg/injection, schedule: Q01DX009 (ip), vehicle: Klucel (hydroxypropylcellulose) (HPC)): 96 % of control

CCOC(=O)C(=O)NNc1cccc(Cl)n1
T/C (dose: 100.0 mg/kg/injection, schedule: Q01DX001 (ip), vehicle: saline with Tween-80): 94 % of control
T/C (dose: 200.0 mg/kg/injection, schedule: Q01DX001 (ip), vehicle: saline with Tween-80): 86 % of control
T/C (dose: 400.0 mg/kg/injection, schedule: Q01DX001 (ip), vehicle: saline with Tween-80): 112 % of control
